Results: ChEMBL document CHEMBL3885861, “Open TG-GATES”

Organism: Rattus norvegicus
Test: Open TG-GATES - Regimen: Daily Repeat
Assay type: toxicity, organism-based, Sprague-Dawley
Parameters: regimen Daily Repeat, gender Male, age 6 weeks
Details: in vivo, po, 0 mg/kg, route gavage, dose level Control; for APTT / Bas / Eos / Fbg / Hb / Ht / Lym / MCH / MCHC / MCV / Mono / Neu / PT / Plat / RBC / Ret / WBC: tissue Blood; for KIDNEY_L / KIDNEY_R / KIDNEY_TOTAL: tissue Kidney; for LIVER: tissue Liver; for A/G / ALP / ALT / AST / BUN / CRE / Ca / Cl / DBIL / GLC / IP / K / LDH / Na / PL / RALB / TBIL / TC / TG / TP / gamma-GTP: tissue Plasma

CC[C@@H](CO)NCCN[C@@H](CC)CO [ETHAMBUTOL]
TERMINAL_BW (72 h, time 3 day): 245.1 g
APTT (72 h, time 3 day): 21.9 s
Bas (72 h, time 3 day): 0%
Eos (72 h, time 3 day): 1%
Fbg (72 h, time 3 day): 308.2 mg/dL
Hb (72 h, time 3 day): 13.6 g/dL
Ht (72 h, time 3 day): 38.8%
Lym (72 h, time 3 day): 80.6%
MCH (72 h, time 3 day): 21.9 pg
MCHC (72 h, time 3 day): 34.9%
MCV (72 h, time 3 day): 62.6 fL
Mono (72 h, time 3 day): 3.2%
Neu (72 h, time 3 day): 13.8%
PT (72 h, time 3 day): 16.1 s
Plat (72 h, time 3 day): 127.2 x10_4/uL
RBC (72 h, time 3 day): 619.8 x10_4/ul
Ret (72 h, time 3 day): 6.5%
WBC (72 h, time 3 day): 109.6 x10_2/uL
KIDNEY_L (72 h, time 3 day): 1.1 g
KIDNEY_R (72 h, time 3 day): 1.1 g
KIDNEY_TOTAL (72 h, time 3 day): 2.2 g
LIVER (72 h, time 3 day): 11.5 g
A/G (72 h, time 3 day): 1.1
ALP (72 h, time 3 day): 1450 IU/L
ALT (72 h, time 3 day): 45.4 IU/L
AST (72 h, time 3 day): 68.6 IU/L
BUN (72 h, time 3 day): 19.2 mg/dL
CRE (72 h, time 3 day): 0.2 mg/dL
Ca (72 h, time 3 day): 10.9 mg/dL
Cl (72 h, time 3 day): 107 meq/L
DBIL (72 h, time 3 day): 0 mg/dL
GLC (72 h, time 3 day): 194.6 mg/dL
IP (72 h, time 3 day): 7.6 mg/dL
K (72 h, time 3 day): 4.4 meq/L
LDH (72 h, time 3 day): 172.4 IU/L
Na (72 h, time 3 day): 140.2 meq/L
PL (72 h, time 3 day): 155.6 mg/dL
RALB (72 h, time 3 day): 3 g/dL
TBIL (72 h, time 3 day): 0.004 mg/dL
TC (72 h, time 3 day): 78.4 mg/dL
TG (72 h, time 3 day): 123.2 mg/dL
TP (72 h, time 3 day): 5.7 g/dL
gamma-GTP (72 h, time 3 day): 1.4 IU/L
TERMINAL_BW ([…], time 7 day): 267.6 g
TERMINAL_BW ([…], time 14 day): 330.7 g
TERMINAL_BW ([…], time 28 day): 391.8 g
APTT ([…], time 7 day): 23.2 s
Bas ([…], time 7 day): 0%
Eos ([…], time 7 day): 1%
Fbg ([…], time 7 day): 338.4 mg/dL
Hb ([…], time 7 day): 14.1 g/dL
Ht ([…], time 7 day): 41.1%
Lym ([…], time 7 day): 83%
MCH ([…], time 7 day): 21.1 pg
MCHC ([…], time 7 day): 34.3%
MCV ([…], time 7 day): 61.4 fL
Mono ([…], time 7 day): 2.2%
Neu ([…], time 7 day): 12.8%
PT ([…], time 7 day): 15.4 s
Plat ([…], time 7 day): 110.1 x10_4/uL
RBC ([…], time 7 day): 671 x10_4/ul
Ret ([…], time 7 day): 5.1%
WBC ([…], time 7 day): 113 x10_2/uL
APTT ([…], time 14 day): 21.6 s
Bas ([…], time 14 day): 0%
Eos ([…], time 14 day): 0.8%
Fbg ([…], time 14 day): 321.6 mg/dL
Hb ([…], time 14 day): 14.4 g/dL
Ht ([…], time 14 day): 42.1%
Lym ([…], time 14 day): 80%
MCH ([…], time 14 day): 20.5 pg
MCHC ([…], time 14 day): 34.2%
MCV ([…], time 14 day): 60.1 fL
Mono ([…], time 14 day): 2.4%
Neu ([…], time 14 day): 15%
PT ([…], time 14 day): 16.3 s
Plat ([…], time 14 day): 103.5 x10_4/uL
RBC ([…], time 14 day): 701.6 x10_4/ul
Ret ([…], time 14 day): 4.4%
WBC ([…], time 14 day): 116.4 x10_2/uL
APTT ([…], time 28 day): 26.2 s
Bas ([…], time 28 day): 0%
Eos ([…], time 28 day): 1.2%
Fbg ([…], time 28 day): 315.8 mg/dL
Hb ([…], time 28 day): 14.7 g/dL
Ht ([…], time 28 day): 42.6%
Lym ([…], time 28 day): 83.4%
MCH ([…], time 28 day): 19.3 pg
MCHC ([…], time 28 day): 34.4%
MCV ([…], time 28 day): 56 fL
Mono ([…], time 28 day): 2.6%
Neu ([…], time 28 day): 11.4%
PT ([…], time 28 day): 15.6 s
Plat ([…], time 28 day): 106 x10_4/uL
RBC ([…], time 28 day): 761.2 x10_4/ul
Ret ([…], time 28 day): 3.1%
WBC ([…], time 28 day): 131.5 x10_2/uL
KIDNEY_L ([…], time 7 day): 1.1 g
KIDNEY_R ([…], time 7 day): 1.1 g
KIDNEY_TOTAL ([…], time 7 day): 2.2 g
KIDNEY_L ([…], time 14 day): 1.3 g
KIDNEY_R ([…], time 14 day): 1.3 g
KIDNEY_TOTAL ([…], time 14 day): 2.6 g
KIDNEY_L ([…], time 28 day): 1.4 g
KIDNEY_R ([…], time 28 day): 1.4 g
KIDNEY_TOTAL ([…], time 28 day): 2.8 g
LIVER ([…], time 7 day): 12.3 g
LIVER ([…], time 14 day): 14.5 g
LIVER ([…], time 28 day): 16.5 g
A/G ([…], time 7 day): 1.1
ALP ([…], time 7 day): 1523.4 IU/L
ALT ([…], time 7 day): 43 IU/L
AST ([…], time 7 day): 69.6 IU/L
BUN ([…], time 7 day): 17.8 mg/dL
CRE ([…], time 7 day): 0.2 mg/dL
Ca ([…], time 7 day): 10.5 mg/dL
Cl ([…], time 7 day): 106.8 meq/L
DBIL ([…], time 7 day): 0 mg/dL
GLC ([…], time 7 day): 198 mg/dL
IP ([…], time 7 day): 7.3 mg/dL
K ([…], time 7 day): 4.1 meq/L
LDH ([…], time 7 day): 200.2 IU/L
Na ([…], time 7 day): 142.2 meq/L
PL ([…], time 7 day): 147.6 mg/dL
RALB ([…], time 7 day): 3 g/dL
TBIL ([…], time 7 day): 0.006 mg/dL
TC ([…], time 7 day): 75.4 mg/dL
TG ([…], time 7 day): 91.6 mg/dL
TP ([…], time 7 day): 5.6 g/dL
gamma-GTP ([…], time 7 day): 1.8 IU/L
A/G ([…], time 14 day): 1.2
ALP ([…], time 14 day): 1341.2 IU/L
ALT ([…], time 14 day): 41 IU/L
AST ([…], time 14 day): 72.6 IU/L
BUN ([…], time 14 day): 19.6 mg/dL
CRE ([…], time 14 day): 0.2 mg/dL
Ca ([…], time 14 day): 10.5 mg/dL
Cl ([…], time 14 day): 106.4 meq/L
DBIL ([…], time 14 day): 0 mg/dL
GLC ([…], time 14 day): 196.6 mg/dL
IP ([…], time 14 day): 7.2 mg/dL
K ([…], time 14 day): 4 meq/L
LDH ([…], time 14 day): 191.2 IU/L
Na ([…], time 14 day): 141.6 meq/L
PL ([…], time 14 day): 139.6 mg/dL
RALB ([…], time 14 day): 3 g/dL
TBIL ([…], time 14 day): 0 mg/dL
TC ([…], time 14 day): 64.2 mg/dL
TG ([…], time 14 day): 116.4 mg/dL
TP ([…], time 14 day): 5.7 g/dL
gamma-GTP ([…], time 14 day): 1.6 IU/L
A/G ([…], time 28 day): 1
ALP ([…], time 28 day): 977.2 IU/L
ALT ([…], time 28 day): 41 IU/L
AST ([…], time 28 day): 67 IU/L
BUN ([…], time 28 day): 19.4 mg/dL
CRE ([…], time 28 day): 0.3 mg/dL
Ca ([…], time 28 day): 10.3 mg/dL
Cl ([…], time 28 day): 105.8 meq/L
DBIL ([…], time 28 day): 0 mg/dL
GLC ([…], time 28 day): 208 mg/dL
IP ([…], time 28 day): 6.8 mg/dL
K ([…], time 28 day): 4.1 meq/L
LDH ([…], time 28 day): 156 IU/L
Na ([…], time 28 day): 142.2 meq/L
PL ([…], time 28 day): 143.6 mg/dL
RALB ([…], time 28 day): 3.1 g/dL
TBIL ([…], time 28 day): 0.008 mg/dL
TC ([…], time 28 day): 72.8 mg/dL
TG ([…], time 28 day): 100.8 mg/dL
TP ([…], time 28 day): 6.2 g/dL
gamma-GTP ([…], time 28 day): 2.4 IU/L
